# Results from patent publication US20240199623A1 (ILDONG PHARMACEUTICAL CO., LTD., priority 2020, published 2024).
# Where two headings read alike, the source gives them in different places.
# Legend:
# [1] = Phosphate-buffered saline (PBS) solubility of compounds; type: physicochemical; conditions: aqueous buffer, thermodynamic from solid, PBS pH 7.5, 0.5 mg/mL, vortexed 90 min, filtered, LC-MS/MS, read-out: Solubility Range
# Protocol: PBS solutions (pH 7.5) were prepared according to the following compositions and stored at 4° C. Test compounds were dissolved in PBS (pH 7.5) at 0.5 mg/mL and vortexed for 90 min. The PBS solution was sequentially filtered through a 0.45, 1.2, […] syringe filter. Concentration of test compounds were determined using LC-MS/MS with appropriate dilution of the samples.
# [2] = system: C57BL/6 female mice; assay: Scopolamine induced tear volume reduction model; type: in vivo, mouse; conditions: scopolamine-injected mice, ophthalmic solution topically on both eyes 3 times a day, phenol red thread; average if evaluated twice
# Protocol: Seven-week old C57BL/6 female mice were used.
# Scopolamine hydrobromide was purchased from Sigma Aldrich (Cat No. S0929), dissolved in saline, and sterilized prior to use.
# Zone-Quick phenol red thread was obtained from Menicon.
# The test compounds used in this experiment were dissolved in PBS containing 1% of surfactant.
# Scopolamine (0.2 ml of 2.5 mg/mL solution) was injected subcutaneously 3 times a day to induce a decrease in the tear volume in the mouse. At the same time, the ophthalmic solution of test compounds or vehicle were topically administered onto both eyes 3 times a day. Tear volume was measured by phenol red thread before dosing (basal level) and 1 hour after the last administration of scopolamine and ophthalmic solution. The results were obtained by measuring the length of the phenol red thread turning red by tears. The schedule of study is expressed as FIG. 1.
# If the test compound was evaluated twice, the average value was used.
# [3] = biological target: T1, Human recombinant PDE4A1A (Homo sapiens, UniProt P27815); assay: Human phosphodiesterase 4 (PDE4) inhibition, PDE4A1A; type: biochemical; conditions: read-out: % inhibition range at 10 uM PDE4A1A
# T1 construct: purchased BPS Bioscience; host or cells: insect Sf9 cells
# Protocol: (§1) […] Human recombinant PDE4A1A, PDE4B 1, PDE4C1 and PDE4D2 are respectively expressed in each host cell (insect Sf9 cells, BPS Bioscience). Preincubation of 10 μM test compounds or vehicle was proceeded with 20 ng/ml PDE4A1A or 4 ng/ml PDE4B 1 or 8 ng/ml PDE4C1 or 5 ng/ml PDE4D2 enzyme in Tris-HCl buffer pH 7.2 for 15 minutes at 25° C. 100 nM fluorescein (FAM) labeled cAMP for another 30 minutes incubation period was added in order to initiate the enzymatic reaction and addition of IMAP binding solution was followed for its termination. Specifically, IMAP complexes with phosphate groups on nucleotide monophosphate generated from cyclic nucleotides through PDE activity. The amount of complex formed is determined by reading spectrofluorimetrical signal at 470 nm/525 nm.
# [4] = biological target: T2, Human recombinant PDE4B 1 (Homo sapiens, UniProt Q07343); assay: Human phosphodiesterase 4 (PDE4) inhibition, PDE4B 1; type: biochemical; conditions: read-out: % inhibition range at 10 uM PDE4B1
# T2 construct: purchased BPS Bioscience; host or cells: insect Sf9 cells
# Protocol: as §1
# [5] = biological target: T3, Human recombinant PDE4C1 (Homo sapiens, UniProt Q08493); assay: Human phosphodiesterase 4 (PDE4) inhibition, PDE4C1; type: biochemical; conditions: read-out: % inhibition range at 10 uM PDE4C1
# T3 construct: purchased BPS Bioscience; host or cells: insect Sf9 cells
# Protocol: as §1
# [6] = biological target: T4, Human recombinant PDE4D2 (Homo sapiens, UniProt Q08499); assay: Human phosphodiesterase 4 (PDE4) inhibition, PDE4D2; type: biochemical; conditions: read-out: % inhibition range at 10 uM PDE4D2
# T4 construct: purchased BPS Bioscience; host or cells: insect Sf9 cells
# Protocol: as §1
# [7] = biological target: T5, human wild type-CFTR (Homo sapiens, UniProt P13569); assay: Short-circuit current measurement; type: cell-based; set-up: expressed in transfected cells; conditions: FRT cells expressing human wild type-CFTR; Forskolin 20 μM signal used as 100% activity; read-out: Short-circuit current measurement (EC50) Concentration range
# Method in brief: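 FRT monolayers stably carrying human wild-type CFTR were mounted in Ussing chambers; forskolin, compounds and the inhibitor CFTRinh-172 went to apical and basolateral sides. Read-outs were apical membrane current and short-circuit current, recorded at 4 Hz.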
# [8] = biological target: T5, human wild type-CFTR; assay: Cell-based YFP assay; set-up: expressed in transfected cells; host or cells: CHO-K1 (Chinese hamster ovary); conditions: CHO-K1 cells expressing human wild type-CFTR and YFP-H148Q/I152L; forskolin 20 μM = 100% activity; read-out: Cell-based YFP Assay (EC50) Concentration Range
# Method in brief: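 I⁻-driven YFP fluorescence quenching at 37 °C: 2 s baseline, addition of 140 mM iodide solution, then 14 s of readings at 0.4 s intervals. Cells were CHO-K1 expressing human wild-type CFTR plus YFP-H148Q/I152L. EC50 derived from averaged triplicates.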
# T5 sequence (P13569 whole entry): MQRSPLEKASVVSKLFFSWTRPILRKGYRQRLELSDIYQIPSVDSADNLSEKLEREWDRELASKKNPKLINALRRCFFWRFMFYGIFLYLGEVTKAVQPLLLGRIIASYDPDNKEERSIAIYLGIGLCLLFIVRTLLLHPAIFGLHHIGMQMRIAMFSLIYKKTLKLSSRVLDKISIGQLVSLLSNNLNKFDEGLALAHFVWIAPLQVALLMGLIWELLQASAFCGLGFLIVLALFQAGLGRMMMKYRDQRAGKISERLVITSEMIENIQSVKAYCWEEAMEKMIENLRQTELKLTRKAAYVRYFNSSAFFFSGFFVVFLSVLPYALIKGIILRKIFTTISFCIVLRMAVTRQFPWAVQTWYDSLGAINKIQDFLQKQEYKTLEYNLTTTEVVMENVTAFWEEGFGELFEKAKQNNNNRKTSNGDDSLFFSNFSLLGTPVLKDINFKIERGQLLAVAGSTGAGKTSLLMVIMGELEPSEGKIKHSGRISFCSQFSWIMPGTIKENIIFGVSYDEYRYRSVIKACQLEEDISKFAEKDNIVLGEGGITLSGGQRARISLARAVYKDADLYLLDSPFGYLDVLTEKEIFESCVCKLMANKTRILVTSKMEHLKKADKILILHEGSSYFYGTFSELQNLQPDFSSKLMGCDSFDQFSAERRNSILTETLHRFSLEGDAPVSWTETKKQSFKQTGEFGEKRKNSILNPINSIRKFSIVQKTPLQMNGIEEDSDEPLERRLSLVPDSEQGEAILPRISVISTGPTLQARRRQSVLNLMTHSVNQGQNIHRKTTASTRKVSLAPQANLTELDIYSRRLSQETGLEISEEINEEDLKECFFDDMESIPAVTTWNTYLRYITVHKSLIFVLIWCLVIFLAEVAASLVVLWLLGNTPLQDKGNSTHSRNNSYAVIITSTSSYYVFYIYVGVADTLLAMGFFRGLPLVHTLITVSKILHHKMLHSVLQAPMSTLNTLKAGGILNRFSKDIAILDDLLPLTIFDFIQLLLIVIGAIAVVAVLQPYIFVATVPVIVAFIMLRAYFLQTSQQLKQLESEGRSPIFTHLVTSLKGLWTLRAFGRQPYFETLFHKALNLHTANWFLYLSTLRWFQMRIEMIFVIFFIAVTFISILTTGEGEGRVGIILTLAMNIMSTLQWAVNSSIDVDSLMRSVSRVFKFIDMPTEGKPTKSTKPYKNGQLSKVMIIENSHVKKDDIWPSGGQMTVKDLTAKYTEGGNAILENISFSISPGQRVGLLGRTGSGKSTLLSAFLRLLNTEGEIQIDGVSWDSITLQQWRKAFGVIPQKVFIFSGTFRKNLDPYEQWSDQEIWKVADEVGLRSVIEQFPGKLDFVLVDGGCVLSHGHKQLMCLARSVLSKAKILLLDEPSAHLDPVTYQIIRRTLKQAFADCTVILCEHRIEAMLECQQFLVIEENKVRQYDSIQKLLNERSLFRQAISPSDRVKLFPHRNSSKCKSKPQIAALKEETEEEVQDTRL
# T4 sequence (Q08499 303-809 limits assumed): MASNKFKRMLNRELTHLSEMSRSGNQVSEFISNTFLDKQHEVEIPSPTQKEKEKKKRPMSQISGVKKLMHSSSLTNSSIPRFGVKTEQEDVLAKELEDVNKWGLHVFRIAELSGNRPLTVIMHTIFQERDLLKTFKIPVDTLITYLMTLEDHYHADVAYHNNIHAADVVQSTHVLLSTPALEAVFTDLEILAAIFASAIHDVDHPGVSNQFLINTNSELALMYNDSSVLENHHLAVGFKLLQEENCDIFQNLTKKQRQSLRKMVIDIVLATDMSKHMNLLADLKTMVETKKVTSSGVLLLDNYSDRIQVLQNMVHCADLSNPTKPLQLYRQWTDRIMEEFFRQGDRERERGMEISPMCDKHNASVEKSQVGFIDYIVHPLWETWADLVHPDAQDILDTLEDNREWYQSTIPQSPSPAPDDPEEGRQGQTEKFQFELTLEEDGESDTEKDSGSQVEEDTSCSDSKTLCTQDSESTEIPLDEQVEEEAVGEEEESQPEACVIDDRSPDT
# T3 sequence (Q08493 whole entry): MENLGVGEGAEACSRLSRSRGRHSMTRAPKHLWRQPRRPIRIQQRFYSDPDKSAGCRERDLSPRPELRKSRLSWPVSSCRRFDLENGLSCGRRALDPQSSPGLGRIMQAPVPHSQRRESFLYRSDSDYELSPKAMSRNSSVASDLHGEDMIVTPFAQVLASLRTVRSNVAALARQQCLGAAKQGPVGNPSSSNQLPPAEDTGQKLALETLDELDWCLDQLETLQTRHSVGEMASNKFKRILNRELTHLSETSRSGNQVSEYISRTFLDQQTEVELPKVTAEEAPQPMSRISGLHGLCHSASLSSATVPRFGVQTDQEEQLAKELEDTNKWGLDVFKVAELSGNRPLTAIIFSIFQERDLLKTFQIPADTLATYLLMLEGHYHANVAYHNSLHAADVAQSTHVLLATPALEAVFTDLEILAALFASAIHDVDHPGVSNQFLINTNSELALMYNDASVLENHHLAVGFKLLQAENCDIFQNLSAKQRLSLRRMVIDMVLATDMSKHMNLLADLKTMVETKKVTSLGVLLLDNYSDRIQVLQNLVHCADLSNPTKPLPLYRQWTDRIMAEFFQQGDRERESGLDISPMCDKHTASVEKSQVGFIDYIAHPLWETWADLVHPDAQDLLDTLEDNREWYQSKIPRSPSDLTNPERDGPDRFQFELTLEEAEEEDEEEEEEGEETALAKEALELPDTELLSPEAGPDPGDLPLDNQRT
# T2 sequence (Q07343 whole entry): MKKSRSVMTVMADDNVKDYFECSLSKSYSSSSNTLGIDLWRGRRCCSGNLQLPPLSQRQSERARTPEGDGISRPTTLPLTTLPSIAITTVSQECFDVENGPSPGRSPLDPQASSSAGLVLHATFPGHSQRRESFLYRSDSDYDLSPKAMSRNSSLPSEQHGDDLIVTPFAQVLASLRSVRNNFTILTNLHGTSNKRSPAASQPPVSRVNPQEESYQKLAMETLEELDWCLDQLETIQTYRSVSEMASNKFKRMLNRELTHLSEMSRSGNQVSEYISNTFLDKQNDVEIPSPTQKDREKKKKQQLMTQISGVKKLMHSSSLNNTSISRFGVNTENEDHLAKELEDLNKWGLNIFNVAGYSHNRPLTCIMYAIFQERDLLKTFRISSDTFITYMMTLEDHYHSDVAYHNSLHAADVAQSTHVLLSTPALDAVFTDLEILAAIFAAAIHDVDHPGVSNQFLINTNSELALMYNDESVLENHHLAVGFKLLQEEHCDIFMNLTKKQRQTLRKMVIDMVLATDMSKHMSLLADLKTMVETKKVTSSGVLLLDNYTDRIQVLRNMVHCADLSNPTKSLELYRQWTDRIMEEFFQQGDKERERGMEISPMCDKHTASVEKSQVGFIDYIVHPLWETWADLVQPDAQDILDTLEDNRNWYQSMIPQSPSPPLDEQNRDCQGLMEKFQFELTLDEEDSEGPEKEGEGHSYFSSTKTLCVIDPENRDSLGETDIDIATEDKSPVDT
# T1 sequence (P27815 1-647 isoform P27815-4): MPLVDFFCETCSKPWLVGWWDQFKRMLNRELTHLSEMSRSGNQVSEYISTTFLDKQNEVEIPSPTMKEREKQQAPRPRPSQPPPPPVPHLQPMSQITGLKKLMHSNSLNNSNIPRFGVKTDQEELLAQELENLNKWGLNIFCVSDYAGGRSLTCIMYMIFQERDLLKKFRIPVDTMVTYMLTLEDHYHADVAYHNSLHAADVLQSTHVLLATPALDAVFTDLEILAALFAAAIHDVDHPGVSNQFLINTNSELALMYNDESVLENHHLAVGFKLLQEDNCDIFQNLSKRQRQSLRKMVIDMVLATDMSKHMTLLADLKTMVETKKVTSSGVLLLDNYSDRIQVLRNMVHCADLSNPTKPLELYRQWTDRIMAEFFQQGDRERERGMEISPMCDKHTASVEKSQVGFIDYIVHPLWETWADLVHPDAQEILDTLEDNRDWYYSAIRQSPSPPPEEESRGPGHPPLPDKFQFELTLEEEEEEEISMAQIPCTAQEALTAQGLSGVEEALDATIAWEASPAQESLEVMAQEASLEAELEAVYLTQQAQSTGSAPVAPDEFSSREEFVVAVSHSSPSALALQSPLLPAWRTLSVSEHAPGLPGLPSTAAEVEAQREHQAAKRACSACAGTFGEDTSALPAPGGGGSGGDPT
SMILES,solubility at 90 min [1],Ratio of tear volume (test compound to vehicle) [2],inhibition at 10 µM ([3]; 10 uM test compound),inhibition at 10 µM ([4]; 10 uM test compound),inhibition at 10 µM ([5]; 10 uM test compound),inhibition at 10 µM ([6]; 10 uM test compound),EC50 [7],EC50 [8],inhibition at 10 µM [3],inhibition at 10 µM [4],inhibition at 10 µM [5],inhibition at 10 µM [6]
"COc1ccc(-c2ccnc3cc(C(=O)Nc4ccc(C(=O)N[C@H](C(=O)N5CCOCC5)C(C)C)cc4)nn23)cc1OC [Compound 147, (S)-7-(3,4-dimethoxyphenyl)-N-(4-((3-methyl-1-morpholino-1-oxobutan-2-yl)carbamoyl)phenyl) pyrazolo[1,5-a]pyrimidine-2-carboxamide]",< 0.1 µg/mL,1.03,> 80%,> 80%,> 80%,> 80%,< 0.2 µM,< 0.2 µM,–,–,–,–
"COc1ccc(-c2ccnc3cc(C(=O)Nc4ccc(N)cc4)nn23)cc1OC [Compound 257, N-(4-aminophenyl)-7-(3,4-dimethoxyphenyl)pyrazolo [1,5-a]pyrimidine-2-carboxamide]",< 0.1 µg/mL,1.16,> 80%,> 80%,> 80%,> 80%,0.2 to 2 µM,< 0.2 µM,–,–,–,–
"COC(=O)c1ccc(NC(=O)c2cc3nccc(-c4ccc(OC)c(F)c4)n3n2)cc1 [Compound 33, methyl 4-(7-(3-fluoro-4-methoxyphenyl)pyrazolo [1,5-a]pyrimidine-2-carboxamido)benzoate]",< 0.1 µg/mL,–,50 to 80%,50 to 80%,< 50%,50 to 80%,≥ 2 µM,0.2 to 2 µM,–,–,–,–
"COc1ccc(-c2ccnc3cc(C(=O)NC45CCC(C(=O)N6CCN(C)CC6)(CC4)CC5)nn23)cc1OC [Compound 151, 7-(3,4-dimethoxyphenyl)-N-(4-(4-methylpiperazine-1-carbonyl)bicyclo[2.2.2]octan-1-yl)pyrazolo[1,5-a]pyrimidine-2-carboxamide]",> 10 µg/mL,1.40,> 80%,> 80%,> 80%,> 80%,0.2 to 2 µM,< 0.2 µM,–,–,–,–
"COc1ccc(-c2ccnc3cc(C(=O)Nc4ccc(C(=O)N5CCN(C)CC5)cc4)nn23)cc1OC [Compound 97, 7-(3,4-dimethoxyphenyl)-N-(4-(4-methylpiperazine-1-carbonyl)phenyl)pyrazolo[1,5-a]pyrimidine-2-carboxamide]",0.1 to 10 µg/mL,0.95,> 80%,> 80%,> 80%,> 80%,0.2 to 2 µM,0.2 to 2 µM,–,–,–,–
"COC(=O)c1ccc(CNC(=O)c2cc3nccc(-c4ccc(OC)c(OC)c4)n3n2)cc1 [Compound 12, methyl 4-((7-(3,4-dimethoxyphenyl)pyrazolo [1,5-a]pyrimidine-2-carboxamido)methyl) benzoate]",< 0.1 µg/mL,–,> 80%,50 to 80%,50 to 80%,50 to 80%,≥ 2 µM,0.2 to 2 µM,–,–,–,–
"COc1ccc(-c2ccnc3cc(C(=O)Nc4ccc(N5CCOCC5)cn4)nn23)cc1OC [Compound 205, 7-(3,4-dimethoxyphenyl)-N-(5-morpholinopyridin-2-yl)pyrazolo[1,5-a]pyrimidine-2-carboxamide]",–,1.12,> 80%,> 80%,> 80%,> 80%,< 0.2 µM,< 0.2 µM,–,–,–,–
"COC(=O)c1ccc(NC(=O)c2cc3nccc(-c4ccc(OC)c(OC)c4)n3n2)cc1 [Compound 11, methyl 4-(7-(3,4-dimethoxyphenyl)pyrazolo[1,5-a]pyrimidine-2-carboxamido)benzoate]",< 0.1 µg/mL,–,–,–,–,–,< 0.2 µM,< 0.2 µM,> 80%,> 80%,> 80%,> 80%
"COc1ccc(-c2ccnc3cc(C(=O)Nc4ccc(O)cc4)nn23)cc1OC [Compound 15, 7-(3,4-dimethoxyphenyl)-N-(4-hydroxyphenyl)pyrazolo[1,5-a]pyrimidine-2-carboxamide]",< 0.1 µg/mL,1.29,> 80%,> 80%,> 80%,> 80%,< 0.2 µM,< 0.2 µM,–,–,–,–
"COC(=O)C12CCC(NC(=O)c3cc4nccc(-c5ccc(OC)c(OC)c5)n4n3)(CC1)CC2 [Compound 144, methyl 4-(7-(3,4-dimethoxyphenyl)pyrazolo[1,5-a]pyrimidine-2-carboxamido)bicyclo[2.2.2]octane-1-carboxylate]",< 0.1 µg/mL,1.18,> 80%,> 80%,> 80%,> 80%,< 0.2 µM,< 0.2 µM,–,–,–,–
